Read-outs that look alike come from different tables or passages of the source.
How the values were obtained:
[1] = test system: NADPH-oxidase activation (H2O2 release) in PMNs; test: Respiratory burst (H2O2 assay) in PMNs; assay type: cell-based, human; conditions: Homo sapiens, read-out: Inhibition of H2O2 release induced by PMA in PMNs (% PMA control); for inhibition at 0.0005 µM: [cpd] 0.0005 μM; for inhibition at 0.001 µM: [cpd] 0.001 μM
Procedure: (§1) NADPH-oxidase activation was measured as induction of H2O2 release (derived from dismutation of O2^−) triggered in PMNs and monocytes by PMA (200 ng/ml). Briefly, PMNs and monocytes were pretreated at 37° C. for 30-60 min with test compound at different concentrations, and stimulated with phorbol 12-myristate 13-acetate (PMA, 200 ng/ml) dissolved in 0.5 ml of a standard reaction mixture. Release of H2O2 was evaluated in real time at time points of 5 min by using a microplate fluorescence reader (Perkin-Elmer). Results are expressed as nmoles of H2O2 released over time by 10^6 cells. Shown are dose-response curves of inhibitory effect on H2O2 release over 60 min.

[2] = test system: NADPH-oxidase activation (H2O2 release) in Monocytes; test: Respiratory burst (H2O2 assay) in monocytes; assay type: cell-based, human; conditions: Homo sapiens, Monocyte; for inhibition at 0.0005 µM: [cpd] 0.0005 μM
Procedure: as §1

V-ATPase = conditions: literature; cited from earlier work
Lymphocytes = test: Chemokine-induced rapid adhesion of lymphocytes to ICAM-1 (LFA-1 ligand); assay type: cell-based; conditions: Homo sapiens, Lymphocyte, read-out: Inhibition of Adhesion (%) Lymphocytes (MIP3-β) (converted); for inhibition at 25 µM: [cpd] 25 μM; for inhibition at 50 µM: [cpd] 50 μM; for inhibition at 100 µM: [cpd] 100 μM
Procedure: (§2) Adhesion was performed on purified integrin ligands and was evaluated as reported in Constantin G. et al., Immunity, 16, 759-769, 2000. Briefly, primary naïve lymphocytes, polymorphonuclear neutrophils (PMNs) or monocytes were isolated form healthy donors. In other experiments, murine autoreactive T cells were obtained from SJL mice immunized with PLP139-151 as described (Piccio L. et al., J. Immunol. 168, 1940-1949, 2002). Cells were resuspended at 4×10^6/ml in PBS, CaCl2, MgCl2 1 mM, 10% FCS, pH 7.2. Adhesion assays were performed on eighteen well glass slides coated overnight at 4° C. with ligands for CR3 (fibrinogen) or LFA-1 (ICAM-1). 20 μl of cell suspension were added to the wells and stimulated at 37° C. with 5 μl of agonists prior to washing, fixation and computer-assisted enumeration of bound cells.
(§3) Integrin activation was measured as induction of rapid adhesion triggered by the classical chemoattractant N-formyl-L-methionyl-L-leucyl-phenylalanine (fMLP) (100 nM) or by the CC chemokine MIP3β (CCL19, 1 μM). PMNs and monocytes were triggered to adhere to fibrinogen (CR3 ligand); naive human lymphocytes or murine encephalitogenic T cells were triggered to adhere to ICAM-1 (LFA-1 ligand). Triggered adhesion was evaluated after 2 min of stimulation under static conditions. The cells were pretreated at 37° C. for 30-60 min with the indicated concentrations of the test compound. Results are expressed as percentage of inhibition over control (=100%) and are the mean of three experiments in the case of human leukocytes. Results are expressed as mean counts and are the mean counts±S.D of three experiments and are the mean of three experiments in the case of murine encephalitogenic lymphocytes.
(§4) Integrin activation was measured as induction of rapid adhesion triggered by the “classical” chemoattractant fMLP (100 nM) or by the CC chemokine MIP3β(CCL19, 1 μM). PMNs were triggered to adhere to fibrinogen (CR3 ligand); lymphocytes were triggered to adhere to ICAM-1 (LFA-1 ligand).

PMNs = test: Chemoattractant-induced rapid adhesion of PMNs to fibrinogen (CR3 ligand); assay type: cell-based; conditions: Homo sapiens, read-out: Inhibition of Adhesion (%) PMNs (fMLP) (converted); for inhibition at 25 µM: [cpd] 25 μM; for inhibition at 50 µM: [cpd] 50 μM; for inhibition at 100 µM: [cpd] 100 μM
Procedure: as §2, §3, §4

[3] = test system: encephalitogenic lymphocytes; test: Chemokine-induced adhesion of murine encephalitogenic T cells to ICAM-1; assay type: cell-based, murine (SJL mice); conditions: NT control in the same cell
Procedure: as §2, §3
Chemokines trigger rapid arrest of lymphocytes in blood vessels through pertussis toxin-sensitive G protein coupled receptors. […] Autoreactive lymphocytes were then stimulated with 1 μM CCL19 (MIP-3beta) for 3 min.

| SMILES | inhibition at 25 µM (Lymphocytes) | inhibition at 50 µM (Lymphocytes) | inhibition at 100 µM (Lymphocytes) | inhibition at 25 µM (PMNs) | inhibition at 50 µM (PMNs) | inhibition at 100 µM (PMNs) | Chemokine-induced Adhesion in encephalitogenic lymphocytes, Mean counts ± S.D., in absence of MIP3-β stimulation ([3]; [cpd] 5 μM) | Chemokine-induced Adhesion in encephalitogenic lymphocytes, Mean counts ± S.D., in presence of MIP3-β stimulation ([3]; [cpd] 5 μM) | Chemokine-induced Adhesion in encephalitogenic lymphocytes, Mean counts ± S.D., in absence of MIP3-β stimulation ([3]; [cpd] 50 μM) | Chemokine-induced Adhesion in encephalitogenic lymphocytes, Mean counts ± S.D., in presence of MIP3-β stimulation ([3]; [cpd] 50 μM) | also measured |
| --- | --- | --- | --- | --- | --- | --- | --- | --- | --- | --- | --- |
| CO/C1=C\C(C)=C\[C@@H](C)[C@@H](O)[C@@H](C)C/C(C)=C/C=C/[C@H](OC)[C@@H]([C@@H](C)[C@@H](O)[C@H](C)[C@@]2(O)C[C@@H](O)[C@H](C)[C@@H](C(C)C)O2)OC1=O [Bafilomycin A1] |  |  |  |  |  |  |  |  |  |  | inhibition at 0.0005 µM ([1]; 0.5 h, 30 min): 7.1%; inhibition at 0.001 µM ([1]; 0.5 h, 30 min): 26.4%; inhibition at 0.0005 µM ([1]; 40 min, 40 min): 9.8%; inhibition at 0.001 µM ([1]; 40 min, 40 min): 27.2%; inhibition at 0.0005 µM ([1]; 50 min, 50 min): 9.3%; inhibition at 0.001 µM ([1]; 50 min, 50 min): 29.9%; inhibition at 0.0005 µM ([2]; 0.5 h, 30 min, read-out: Inhibition of H2O2 release induced by PMA in Monocytes (% PMA control)): 22.1%; inhibition at 0.001 µM ([2]; 0.5 h, [cpd] 0.001 μM, 30 min, read-out: Inhibition of H2O2 release induced by PMA in Monocytes (% PMA control)): 30.8%; inhibition at 0.0005 µM ([2]; 40 min, 40 min, read-out: Inhibition of H2O2 release induced by PMA in Monocytes (% PMA control)): 28.2%; inhibition at 0.001 µM ([2]; 40 min, [cpd] 0.001 μM, 40 min, read-out: Inhibition of H2O2 release induced by PMA in Monocytes (% PMA control)): 37.2%; inhibition at 0.0005 µM ([2]; 50 min, 50 min, read-out: Inhibition of H2O2 release induced by PMA in Monocytes (% PMA control)): 32.4%; inhibition at 0.001 µM ([2]; 50 min, [cpd] 0.001 μM, 50 min, read-out: Inhibition of H2O2 release induced by PMA in Monocytes (% PMA control)): 47.9%; inhibition at 0.001 µM ([2]; 1 nM concentration, read-out: inhibition of the respiratory burst in monocytes): 48%; inhibition of V-ATPase (in words) (V-ATPase): very potent and highly specific inhibitors |
| COc1ccc(-c2c(C(N)=O)[nH]c3cc(OC)c(OC)cc23)cc1 [Example 14] | 30.9% | 70.9% | 91.8% | 62.8% | 83.9% | 94.9% |  |  |  |  |  |
| COc1ccc(-c2c(-c3nnco3)[nH]c3cc(OC)c(OC)cc23)cc1 [Example 26] | 8.7% | 21.9% | 26.7% | 34.7% | 50.5% | 57.5% | 93.1 ± 7.5 | 125.9 ± 7.2 | 49.8 ± 5.9 | 98.9 ± 12.0 |  |
| COc1ccc(-c2c3n(c4cc(OC)c(OC)cc24)CCNC3)cc1 [Example 28] | 16.7% | 34.8% | 49.1% | 34.7% | 41% | 46.5% | 75.7 ± 9.0 | 127.0 ± 5.0 | 48.6 ± 2.9 | 118.8 ± 10.8 |  |
| COCCn1c(C(=O)OC)c(-c2ccc(OC)cc2)c2cc(OC)c(OC)cc21 [Example 39] | 8.2% | 26.4% | 41.4% | 33.8% | 39.1% | 44.8% | 72.9 ± 8.8 | 118.2 ± 10.0 | 44.8 ± 1.9 | 104.4 ± 5.0 |  |
| CCCn1c(C#N)c(-c2ccccc2)c2cc(OC)c(OC)cc21 [Example 50] |  |  |  |  |  |  | 81.7 ± 11.9 | 124.5 ± 8.1 | 62.0 ± 4.0 | 92.0 ± 3.0 |  |
| COC(=O)c1c(-c2ccc(OC)cc2)c2cc(OC)c(OC)cc2n1CCN1CCCC1 [Example 52] | 45.9% | 53.5% | 58.9% | 0.8% | 11% | 6.1% | 31.8 ± 3.1 | 103.2 ± 10.2 | 24.9 ± 12.8 | 82.3 ± 8.1 | Chemokine-induced Adhesion in encephalitogenic lymphocytes, Mean counts ± S.D., in absence of MIP3-β stimulation ([3]; [cpd] 1 μM): 51.9 ± 3.9; Chemokine-induced Adhesion in encephalitogenic lymphocytes, Mean counts ± S.D., in presence of MIP3-β stimulation ([3]; [cpd] 1 μM): 118.9 ± 4.0 |
| COc1ccc(-c2c(C#N)n(CCN3CCOCC3)c3cc(OC)c(OC)cc23)cc1 [Example 56] | 0% | 12.6% | 72.8% | 3.4% | 11.6% | 8.7% | 64.1 ± 9.9 | 92.3 ± 2.3 | 49.7 ± 3.9 | 79.4 ± 12.1 |  |
| COc1ccc(-c2c3n(c4cc(OC)c(OC)cc24)CCN(S(=O)(=O)C(C)C)C3)cc1 [Example 68] |  |  |  |  |  |  | 62.3 ± 9.0 | 102.8 ± 5.5 | 33.5 ± 6.0 | 74.3 ± 3.9 |  |
| COc1ccc(-c2c3n(c4cc(OC)c(OC)cc24)CCOC3)cc1 [Example 76] | 30.1% | 40.3% | 48.3% | 25.6% | 35.7% | 66.3% |  |  |  |  |  |
| CCOC(=O)c1[nH]c2cc(OC)c(OC)cc2c1-c1ccncc1 [Example 81] | 4.5% | 12.7% | 34.9% | 14.4% | 0.8% | 0% | 56.2 ± 11.1 | 84.5 ± 8.8 | 41.3 ± 3.6 | 99.2 ± 5.0 |  |

— patent US20080317857A1, “V-Atpase Inhibitors of Use in the Treatment of Septic Shock” (Brane Discovery S.r.l., priority 2005, published 2008)
